Experimental findings from US7598207B2, “Herbicidal composition” (Sumitomo Chemical Company, Limited, priority 2006, dated 2009) are described below.

Holding throughout (format): in vivo
Data set [1] deals with potato. Nature of the data set: Test Example 6: soil-surface granule pot test, phytotoxicity against vegetable. The note with it: flumioxazin 25 g/ha; granules on soil surface; 14 days after application. The source says:
(§1) Plastic pots each having a diameter of 21 cm and a height of 20 cm were filled with upland soil, and then planted with potato and seeded with barnyardgrass, crabgrass and ivyleaf morningglory. Next day, on the surface of the soil of the above-mentioned plastic pots, Flumioxazin granules (granules containing 0.25% of flumioxazin, commercial name: Broad Star, produced by Valent U.S.A.), granules containing 0.9% of Compound [I] (prepared according to Formulation example 9), and a mixture of the Flumioxazin granules with the granules containing Compound [I] were applied with hand in a designated amount given by Table 6.
(§2) The herbicidal activity and phytotoxicity against the vegetable were examined 14 days after the application.

Data set [2] has as its system ivyleaf morningglory. Nature of the data set: Test Example 6: soil-surface granule pot test, herbicidal activity. The note with it: flumioxazin 25 g/ha; granules on soil surface; 14 days after application.
Excerpt: as §1, §2

In data set [3] the test system is barnyardgrass. Described as above. The note with it: flumioxazin 25 g/ha; granules on soil surface; 14 days after application.
Excerpt: as §1, §2

Data set [4] concerns crabgrass. The data set is described as above. The note with it: flumioxazin 25 g/ha; granules on soil surface; 14 days after application.
Excerpt: as §1, §2

Data set [5] relates to yellow nutsedge. Nature of the data set: Test Example 3: soil-surface spray pot test, herbicidal activity. Set-up: key: 0: there is no or little difference in the degree of growth between treated plants and untreated plants at the time of observation; 7: show excellent herbicidal activity; 8: show excellent herbicidal activity; 9: show excellent herbicidal activity; 10: the test plants die completely or their growth is completely inhibited. The note with it: 21 days after application. From the text: Plastic pots each having a width of 32 cm, a depth of 22 cm and a height of 8 cm were filled with upland soil, and then planted with a tuber of yellow nutsedge. Next day, Flumioxazin WDG (water dispersible granules containing 51% of flumioxazin, commercial name: Valor SX, produced by Valent U.S.A.), emulsifiable concentrate containing Compound [I] (prepared by dissolving Compound [I] with acetone containing Tween 20 (surfactant, sorbitan monolaurate polyglycol ether)) and a mixture thereof was diluted with a designated amount of water, and applied uniformly on the surface of the soil with a small sprayer.
The treated plants were grown in the greenhouse. The herbicidal activity and phytotoxicity against the crop were examined 21 days after the application.

Data set [6] relates to barnyardgrass. Put plainly: Test Example 1: soil-surface granule pot test, herbicidal activity. Conditions: flumioxazin 40 g/ha; granules on soil surface; 48 days after application. The source says:
(§3) Plastic pots each having a diameter of 18 cm and a height of 14 cm were filled with upland soil, and then seeded with wheat and barnyardgrass. On the surface of the soil of the above-mentioned plastic pots, Flumioxazin granules (granules containing 0.25% of flumioxazin, commercial name: Broad Star, produced by Valent U.S.A.), granules containing Compound [I] (prepared by using one part of Compound [I], 0.5 part of Neocol YSK, 2 parts of Toxanon GR31A, 30 parts of Kunigel VI and 66.5 parts of calcium carbonate according to Formulation example 9), and a mixture of the Flumioxazin granules with the granules containing Compound [I] were applied with hand in a designated amount given by Table 1.
(§4) The treated plants were grown in the greenhouse. The herbicidal activity and phytotoxicity against the crop were examined 48 days after the application.

Data set [7] relates to wheat. Put plainly: Test Example 1: soil-surface granule pot test, phytotoxicity against crop. The note with it: flumioxazin 40 g/ha; granules on soil surface; 48 days after application.
Excerpt: as §3, §4

`C#CCN1C(=O)COc2cc(F)c(N3C(=O)C4=C(CCCC4)C3=O)cc21` [flumioxazin, N-(7-fluoro-3,4-dihydro-3-oxo-4-prop-2-ynyl-2H-1,4-benzoxadin-6-yl)cyclohex-1-ene-1,2-dicarboxamide]: the “Phytotoxicity against vegetable Potato” value in data set [1] is reported as “No damage”. The “Herbicidal activity Ivyleaf morningglory” value in data set [2] stood at 1. For the same molecule, the “Herbicidal activity Barnyardgrass” value in data set [3] is 1; in data set [6] it was 4. In addition, the “Herbicidal activity Crabgrass” value in data set [4] came to 5. The “Herbicidal activity Yellow nutsedge” value in data set [5] (flumioxazin 25 g/ha) was 0; in data set [5] (flumioxazin 50 g/ha), 1. The “Phytotoxicity against crop Wheat” value in data set [7] is reported as “No damage”.
